This is an account of results in patent US9023813B2 (Nutek Pharma Ltd., priority 2012, dated 2015).

Structures are written as SMILES.

The nature of data set [1]: Solubility determination in D2O by 1H NMR with DSS internal standard.
Protocol: Thus the soapy-like solutions obtained were diluted until opalescent and diluted further until the opalescence visually disappeared.
A short description of data set [2]: Pharmacokinetics: plasma concentrations of prodrug and propofol after intravenous infusion (LC/MS/MS). Particulars: for AUCinf / MRTinf: extrapolated to infinity; for AUClast: to last detected concentration; for CLp: total body clearance, dose/AUCinf; for Vdss: volume of distribution; for Mean Concentration of Propofol in Rat Plasma After Intravenous Administration: analyte = propofol released from the administered compound; for Pro-drug behaviour (release of propofol in vivo): rats, releasing the propofol in a matter of minutes after infusion. As to the method:
(§1) Blood samples were to be taken pre-dose, during dose and post dose at designated intervals, with the blood quickly processed and stored at −70° C. until analysis.
(§2) Formulations were prepared on the morning of the dosing day and each was passed through a 0.22 μm filter prior to being administered to animals. A standard dose of 0.168 mmol/Kg per analog was administered to each of the rats. […] Analog stability in the formulations was verified by preparing each formulation and harvesting 200 μL aliquots at 0, 1, 2 and 8 hr while standing at room temperature. After harvesting, each sample was immediately frozen in dry ice until analysis; concentrations of test compounds in the samples were examined by HPLC-UV.
(§3) The animals were surgically prepared with indwelling cannula, double cannulation in carotid artery and jugular vein for i.v. infusion. The anesthetic pentobarbital was used during the surgery, and the animals were allowed to recover 3-5 days after surgery before the formulation was dosed. The dose formulation was administered intravenously via the jugular vein cannula. The 16.8 μmol/mL formulation was administered i.v. at a rate of 1 mL/Kg/min for 10 min.
Approximately 0.20 mL blood was collected at each designated time point from carotid artery via a catheter. A total of 12 plasma samples were taken from each animal: 1 pre-dose; 2 during the dose (5 into the 10 min infusion and one just prior termination of the 10 min infusion) and 9 post-infusion at 2, 5, 15, 30 min and 1, 2, 3, 4, and 6 hr post-dose. All blood samples were transferred into plastic microcentrifuge tubes containing 5 μL of K2-EDTA (0.5M) as anti-coagulant and placed on ice until processed for plasma. Blood samples were processed for plasma by centrifugation at approximately 5° C. Plasma samples were then stored in 1.5 mL tubes, quick frozen over dry ice and kept at −70±10° C. until LC/MSMS analysis.
For each, a minimum of 6 standard point curve runs in duplicates, and minimum of 5 standards were back calculated to within ±20% of their nominal concentrations. The LLOQ of each test article in plasma was established and 6 QC samples were included in assay runs of samples to ensure assay performance.
Data Analysis. Plasma concentration versus time data was analyzed by non-compartmental approaches using the WinNonlin software program (version 5.2, Pharsight, Mountain View, Calif.) and the pharmacokinetic parameters T½, CL, Vss, AUC(0-t), AUC(0-inf), MRT, and graphs of plasma concentration versus time calculated for each.

Data set [3] has as its system male Sprague Dawley rats. The data set is described as follows: Clinical observations of rats during administration of propofol analogs in the pharmacokinetics study. How it is done:
as §1, §2, §3

For data set [4] the following is noted: cited from earlier work.
Where [5] appears, read: analyte = administered compound, Time (h) 0.
The mark [6] stands for this setting: analyte = administered compound, Time (h) 0.083.
The mark [7] stands for this setting: analyte = administered compound, Time (h) 0.167.
Where [8] appears, read: analyte = administered compound, Time (h) 0.2.
Where [9] appears, read: analyte = administered compound, Time (h) 0.25.
Where [10] appears, read: analyte = administered compound, Time (h) 0.417.
[11] abbreviates: analyte = administered compound, Time (h) 0.667.
Where [12] appears, read: analyte = administered compound, Time (h) 1.166.
[13] abbreviates: analyte = administered compound, Time (h) 2.166.
The mark [14] stands for this setting: analyte = administered compound, Time (h) 3.166.
The mark [15] stands for this setting: analyte = administered compound, Time (h) 4.166.
Setting [16] is: analyte = administered compound, Time (h) 6.166.
The mark [17] stands for this setting: analyte = administered compound.
Setting [18] is: analyte = administered compound, rat plasma, IV infusion.
Setting [19] is: time post-10 min i.v. infusion, 0.168 mmol/Kg.

In data set [1], `CC(C)c1cccc(C(C)C)c1OC(=O)OCCCO[C@@H]1O[C@H](CO)[C@@H](OC2O[C@H](CO)[C@@H](O)[C@H](O)[C@H]2O)[C@H](O)[C@H]1O` (stereo partly drawn) [Compound 25] yielded a Relative solubility above 20. The same compound displayed a solubility in data set [1] (D2O, water, thermodynamic from solid) above 20 mM. For the same compound, the “Mean concentration of prodrug and propofol in rat plasma after intravenous infusion administration” value in data set [2] (setting [5]) is “BQL”; in data set [2] (setting [6]), 34401 nM; in data set [2] (setting [7]) it was 68360 nM; in data set [2] (setting [8]), 22658 nM; in data set [2] (setting [9]) it was 9074 nM; in data set [2] (setting [10]), 997 nM. Also, the “Mean concentration of prodrug and propofol in rat plasma after intravenous infusion administration” value in data set [2] (setting [11]) is 97.1 nM; in data set [2] (setting [12]) it was 16.2 nM; in data set [2] (setting [13]), 2.09 nM; in data set [2] (setting [14]), “BQL”; in data set [2] (setting [15]), “BQL”; in data set [2] (setting [16]) it was “BQL”. For the same compound, the AUCinf in data set [2] (setting [17]) was 8.574 µM·h. In addition, in data set [2] (setting [17]), the MRTinf is 4.62 min. The Cmax in data set [2] (setting [18]) amounted to 68400 nM. The Tmax in data set [2] (setting [18]) is 10.2 min. The t1/2 in data set [2] (setting [18]) worked out at 15.2 min. Besides, in data set [2] (setting [17]), the AUClast amounted to 8.571 µM·h. Moreover, in data set [2] (setting [17]), the CLp was 337 mL/min/kg. In addition, the Vdss in data set [2] (setting [17]) is 1.51 L/kg. The “Mean Concentration of Propofol in Rat Plasma After Intravenous Administration” value (“Mean Concentration of Propofol” below) in data set [2] (Time (h) 0) is “BQL”. Moreover, the “Pro-drug behaviour (release of propofol in vivo)” value (“Pro-drug behaviour” below) in data set [2] is “very efficient pro-drugs”. Besides, the Rats recovered at result in data set [3] (setting [19]) is reported as “recovered at about 35 min”. Also, the Rats soporous at entry in data set [3] (setting [19]) is recorded as “Rats soporous at about 7 min and”.
For `CC(C)c1cccc(C(C)C)c1OC(=O)OCCO[C@H]1O[C@H](CO)[C@@H](O)[C@H](O)[C@H]1O` [Compound 32], in data set [1], the Relative solubility turned out to be 12.0. In addition, the “Mean concentration of prodrug and propofol in rat plasma after intravenous infusion administration” value in data set [2] (setting [5]) is “BQL”; in data set [2] (setting [6]), 4.88 nM; in data set [2] (setting [7]), 4.97 nM; in data set [2] (setting [8]) it was 2.68 nM; in data set [2] (setting [9]), “BQL”; in data set [2] (setting [10]), “BQL”. Besides, the “Mean concentration of prodrug and propofol in rat plasma after intravenous infusion administration” value in data set [2] (setting [11]), in data set [2] (setting [12]), in data set [2] (setting [13]), in data set [2] (setting [14]), in data set [2] (setting [15]) and in data set [2] (setting [16]) was “BQL” in each case. Besides, the AUClast in data set [2] (setting [17]) amounted to 0.000657 µM·h. The “Mean Concentration of Propofol” value in data set [2] (Time (h) 0) is on record as “BQL”. Moreover, in data set [2], the “Pro-drug behaviour” value is reported as “very efficient pro-drugs”. Further, in data set [3] (setting [19]), the Rats recovered at result is on record as “recovered at about 26 min”.
On to `CC(C)c1cccc(C(C)C)c1OC(=O)OCCCO[C@H]1O[C@H](CO)[C@@H](O)[C@H](O)[C@H]1O` [Compound 33], for which the Relative solubility in data set [1] was 5.2 (8.1)^4. The “Mean concentration of prodrug and propofol in rat plasma after intravenous infusion administration” value in data set [2] (setting [5]) was “BQL”; in data set [2] (setting [6]), 16.5 nM; in data set [2] (setting [7]), 23.1 nM; in data set [2] (setting [8]), 9.59 nM; in data set [2] (setting [9]), “BQL”; in data set [2] (setting [10]), “BQL”. In addition, the “Mean concentration of prodrug and propofol in rat plasma after intravenous infusion administration” value in data set [2] (setting [11]), in data set [2] (setting [12]), in data set [2] (setting [13]), in data set [2] (setting [14]), in data set [2] (setting [15]) and in data set [2] (setting [16]) was “BQL” throughout. Also, in data set [2] (setting [17]), the AUClast was determined as 0.00304 µM·h. Also, the “Mean Concentration of Propofol” value in data set [2] (Time (h) 0), in data set [2] (Time (h) 4.166) and in data set [2] (Time (h) 6.166) was “BQL” each time. Also, the “Pro-drug behaviour” value in data set [2] is listed as “very efficient pro-drugs”. The Rats recovered at result in data set [3] (setting [19]) is recorded as “recovered at about 30 min”.
Consider `CC(C)c1cccc(C(C)C)c1O` [Propofol, 2,6-diisopropylphenol, reference compound], for which, in data set [4] (anesthetic onset), the Onset is below 30 s. Further, the Duration of action in data set [4] (in vivo) is reported as around 5 min. In data set [4] (standard lipid formulation), the “Pain on administration (share of uses)” value is recorded as 80%. Further, the “Mean concentration of prodrug and propofol in rat plasma after intravenous infusion administration” value in data set [2] (setting [6]) stood at 21795 nM; in data set [2] (setting [7]), 31510 nM; in data set [2] (setting [8]), 19613 nM; in data set [2] (setting [9]), 13370 nM; in data set [2] (setting [10]), 3827 nM; in data set [2] (setting [11]), 3122 nM. Also, the “Mean concentration of prodrug and propofol in rat plasma after intravenous infusion administration” value in data set [2] (setting [12]) is 1642 nM; in data set [2] (setting [13]) it was 841 nM; in data set [2] (setting [14]), 332 nM; in data set [2] (setting [15]) it was 259 nM; in data set [2] (setting [16]) it was 230 nM. Further, the AUCinf in data set [2] (setting [17]) is 12.634 µM·h. The MRTinf in data set [2] (setting [17]) is 209 min. Moreover, the AUClast in data set [2] (setting [17]) turned out to be 10.576 µM·h. In addition, the CLp in data set [2] (setting [17]) turned out to be 264.7 mL/min/kg. In addition, in data set [2] (setting [17]), the Vdss turned out to be 61.2 L/kg. Also, in data set [2] (Time (h) 0), the “Mean Concentration of Propofol” value is recorded as “BQL”. For the same compound, in data set [3] (setting [19]), the Rats soporous at result is given as “Rats soporous at about 4 min and”. Also, the Rats recovered at entry in data set [3] (time post-10 min infusion, 5% cremophor vehicle) is “recovered at about 1.5 hr”.
